Measured values published in ChEMBL document CHEMBL1201862, “PubChem BioAssay data set” (2004).
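Cultured in 96-well plates, cells were exposed to test compound for 48 hours across five concentrations. GI50: concentration for 50% inhibition of growth.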 Activity calls are given as the source filed them. No stated cut-off is given here; in the data, active = GI50 up to about 1.1 µM and inactive = higher. Where a SMILES comes first, the peptide text is derived from it. The star is where a group is joined. Cbz = O=C(OCc1ccccc1)*; Boc = CC(C)(C)OC(=O)*; tBu = CC(C)(C)*

Columns and labels:
Assay in all cases: NCI anticancer screen, dose series, 48 h
A498 = test system: A498
A549 = test system: A549
CCRF-CEM = test system: CCRF-CEM
HCC 2998 = test system: HCC 2998
HCT-116 = test system: HCT-116
HOP-92 = test system: HOP-92
Hs-578T = test system: Hs-578T
M14 = test system: M14
MDA-N = test system: MDA-N
NCI-H226 = test system: NCI-H226
NCI-H23 = test system: NCI-H23
NCI-H460 = test system: NCI-H460
OVCAR-3 = test system: OVCAR-3
OVCAR-4 = test system: OVCAR-4
OVCAR-5 = test system: OVCAR-5
SN12C = test system: SN12C
SNB-75 = test system: SNB-75
SW-620 = test system: SW-620
UACC-62 = test system: UACC-62

Row | Compound | GI50 (A498) | GI50 (A549) | GI50 (CCRF-CEM) | GI50 (HCC 2998) | GI50 (HCT-116) | GI50 (HOP-92) | GI50 (Hs-578T) | GI50 (M14) | GI50 (MDA-N) | GI50 (NCI-H226) | GI50 (NCI-H23) | GI50 (NCI-H460) | GI50 (OVCAR-3) | GI50 (OVCAR-4) | GI50 (OVCAR-5) | GI50 (SN12C) | GI50 (SNB-75) | GI50 (SW-620) | GI50 (UACC-62)
1 | CC(OC(C)(C)C)C(NC(=O)C(CCCCNC(=O)OC(C)(C)C)NC(=O)C(Cc1c[nH]c2ccccc12)NC(=O)C(Cc1ccccc1)NC(=O)OCc1ccccc1)C(=O)NC(Cc1ccccc1)C(=O)O (stereo not given) (Cbz-FWK(Boc)T(tBu)F-OH; configuration not given here) | > 100 µM (inactive) | > 100 µM (inactive) | 28.1 µM (inactive) | 30.8 µM (inactive) | 36.6 µM (inactive) | > 100 µM (inactive) | 0.9 µM (active) | > 100 µM (inactive) | 38.5 µM (inactive) | 37.3 µM (inactive) | 61.7 µM (inactive) | > 100 µM (inactive) | 32.1 µM (inactive) | 91 µM (inactive) | 33.1 µM (inactive) | 25.8 µM (inactive) | 15.7 µM (inactive) | 75.2 µM (inactive) | 21 µM (inactive)
2 | C[C@]12CC[C@H]3[C@@H](CC=C4C[C@@H](N5CCCC5)CC[C@@]43C)[C@@H]1C[C@H](N1CCOCC1)[C@@H]2O | > 100 µM (inactive) | > 100 µM (inactive) | > 100 µM (inactive) | > 100 µM (inactive) | > 100 µM (inactive) | > 100 µM (inactive) | > 100 µM (inactive) | > 10 µM (inactive) | > 100 µM (inactive) | > 100 µM (inactive) | > 100 µM (inactive) | > 100 µM (inactive) | > 100 µM (inactive) | > 100 µM (inactive) | > 100 µM (inactive) | > 100 µM (inactive) | > 100 µM (inactive) | > 100 µM (inactive) | > 100 µM (inactive)
3 | O=C1Nc2ccc(Br)cc2/C1=N/c1ccc2c(c1)OCO2 | 30.6 µM (inactive) | 46.8 µM (inactive) | 14.7 µM (inactive) | 15.7 µM (inactive) | 17.4 µM (inactive) | 50.1 µM (inactive) | 30.5 µM (inactive) | 20.5 µM (inactive) | 15.7 µM (inactive) | 24.3 µM (inactive) | 37.2 µM (inactive) | 22.5 µM (inactive) | 22.1 µM (inactive) | 3.72 µM (inactive) | 22.8 µM (inactive) | 19 µM (inactive) | 31.6 µM (inactive) | 22.4 µM (inactive) | 15.7 µM (inactive)
4 | CCCCCC/C=C\CCCCCCCCCC1=C(CN2CCN(C)CC2)C(=O)C=C(OC)C1=O | 17.5 µM (inactive) | 3.83 µM (inactive) | 0.465 µM (active) | 7.6 µM (inactive) | 2.14 µM (inactive) | 2.64 µM (inactive) | 6.03 µM (inactive) | 2.51 µM (inactive) | 8.05 µM (inactive) | 14.2 µM (inactive) | 4.57 µM (inactive) | 5.73 µM (inactive) | 6.76 µM (inactive) | 1.76 µM (inactive) | 15.2 µM (inactive) | 4.37 µM (inactive) | 1.62 µM (inactive) | 1.59 µM (inactive) | 12.9 µM (inactive)
5 | C/C=C(/C)C(=O)O[C@H]1CCN2CC=C(COC(=O)[C@@](O)([C@H](C)OC)C(C)(C)O)[C@H]12 | > 100 µM (inactive) | > 100 µM (inactive) | > 100 µM (inactive) | > 100 µM (inactive) | > 100 µM (inactive) | > 100 µM (inactive) | > 100 µM (inactive) | > 100 µM (inactive) | > 100 µM (inactive) | > 100 µM (inactive) | > 100 µM (inactive) | > 10 µM (inactive) | > 100 µM (inactive) | > 100 µM (inactive) | > 100 µM (inactive) | > 100 µM (inactive) | > 100 µM (inactive) | > 100 µM (inactive) | > 100 µM (inactive)
